Measurements from ChEMBL document CHEMBL1938345, “Design, synthesis and cytotoxic activity of novel spin-labeled rotenone derivatives” (Bioorg Med Chem Lett, 2012).
≈ marks a conversion by molar mass, not a printed value.

How the values were obtained:
Type in all cases: functional, cell-based
[1] = Cytotoxicity against human KBVIN cells by SRB assay
KB = test: Cytotoxicity against human KB cells by SRB assay
DU-145 = test: Cytotoxicity against human DU145 cells by SRB assay
A549 = test: Cytotoxicity against human A549 cells by SRB assay
[2] = Homo sapiens, KBVIN, read-out: IC50
[3] = Homo sapiens, KB, read-out: IC50
[4] = Homo sapiens, DU-145, read-out: IC50

SMILES: C=C(C)[C@H]1Cc2c(ccc3c2O[C@@H]2COc4cc(OC)c(OC)cc4[C@@H]2[C@@H]3OC(=O)C2=CC(C)(C)N([O])C(C)(C)C2)O1
- IC50 ([1]; kbvin): 0.299 µg/mL (≈ 0.518 µM)
- IC50 (KB; kb): 0.427 µg/mL (≈ 0.74 µM)
- IC50 (DU-145; du-145): 0.322 µg/mL (≈ 0.558 µM)
- IC50 (A549; a549): 0.578 µg/mL (≈ 1 µM)

SMILES: C=C(C)[C@H]1Cc2c(ccc3c2O[C@@H]2COc4cc(OC)c(OC)cc4[C@@H]2/C3=N\OC(=O)C2=CC(C)(C)N([O])C(C)(C)C2)O1
- IC50 ([1]; kbvin): 0.162 µg/mL (≈ 0.275 µM)
- IC50 (KB; kb): 0.575 µg/mL (≈ 0.975 µM)
- IC50 (DU-145; du-145): 0.358 µg/mL (≈ 0.607 µM)
- IC50 (A549; a549): 0.542 µg/mL (≈ 0.919 µM)

SMILES: C=C(C)[C@H]1Cc2c(ccc3c2O[C@@H]2COc4cc(OC)c(OC)cc4[C@@H]2[C@@H]3OC(=O)[C@@H](NC(=O)OC2CC(C)(C)N([O])C(C)(C)C2)C(C)C)O1
- IC50 ([1]; kbvin): 0.381 µg/mL (≈ 0.549 µM)
- IC50 (KB; kb): 0.497 µg/mL (≈ 0.716 µM)
- IC50 (DU-145; du-145): 0.451 µg/mL (≈ 0.65 µM)
- IC50 (A549; a549): 0.615 µg/mL (≈ 0.886 µM)

SMILES: C=C(C)[C@H]1Cc2c(ccc3c2O[C@@H]2COc4cc(OC)c(OC)cc4[C@@H]2C3=O)O1 [ROTENONE]
- IC50 [1, 2]: 0.595 µg/mL (≈ 1.51 µM)
- IC50 (KB; [3]): 0.513 µg/mL (≈ 1.3 µM)
- IC50 (DU-145; [4]): 0.465 µg/mL (≈ 1.18 µM)
- IC50 (A549; Homo sapiens, A549, read-out: IC50): 0.901 µg/mL (≈ 2.28 µM)

SMILES: C=C(C)[C@H]1Cc2c(ccc3c2O[C@@H]2COc4cc(OC)c(OC)cc4[C@@H]2[C@@H]3OC(=O)[C@H](Cc2ccccc2)NC(=O)OC2CC(C)(C)N([O])C(C)(C)C2)O1
- IC50 ([1]; kbvin): 0.383 µg/mL (≈ 0.516 µM)
- IC50 (KB; kb): 0.509 µg/mL (≈ 0.686 µM)
- IC50 (DU-145; du-145): 0.462 µg/mL (≈ 0.623 µM)
- IC50 (A549; a549): 0.713 µg/mL (≈ 0.961 µM)

SMILES: C=C(C)[C@H]1Cc2c(ccc3c2O[C@@H]2COc4cc(OC)c(OC)cc4[C@@H]2[C@@H]3OC(=O)CNC(=O)OC2CC(C)(C)N([O])C(C)(C)C2)O1
- IC50 ([1]; kbvin): 0.41 µg/mL (≈ 0.629 µM)
- IC50 (KB; kb): 0.51 µg/mL (≈ 0.783 µM)
- IC50 (DU-145; du-145): 0.45 µg/mL (≈ 0.69 µM)
- IC50 (A549; a549): 0.624 µg/mL (≈ 0.957 µM)

SMILES: C=C(C)[C@H]1Cc2c(ccc3c2O[C@@H]2COc4cc(OC)c(OC)cc4[C@@H]2[C@@H]3OC(=O)[C@H](CC(C)C)NC(=O)OC2CC(C)(C)N([O])C(C)(C)C2)O1
- IC50 ([1]; kbvin): 0.355 µg/mL (≈ 0.502 µM)
- IC50 (KB; kb): 0.483 µg/mL (≈ 0.682 µM)
- IC50 (DU-145; du-145): 0.443 µg/mL (≈ 0.626 µM)
- IC50 (A549; a549): 0.521 µg/mL (≈ 0.736 µM)

SMILES: CC(=O)O[C@H]1C(=O)[C@@]2(C)[C@H]([C@H](OC(=O)c3ccccc3)[C@]3(O)C[C@H](OC(=O)[C@H](O)[C@@H](NC(=O)c4ccccc4)c4ccccc4)C(C)=C1C3(C)C)[C@]1(OC(C)=O)CO[C@@H]1C[C@@H]2O [PACLITAXEL]
- IC50 [1, 2]: 1.15 µg/mL (≈ 1.34 µM)
- IC50 (KB; [3]): 0.0048 µg/mL (≈ 0.00562 µM)
- IC50 (DU-145; [4]): 0.0037 µg/mL (≈ 0.00433 µM)

SMILES: C=C(C)[C@H]1Cc2c(ccc3c2O[C@@H]2COc4cc(OC)c(OC)cc4[C@@H]2/C3=N\OC(=O)C2CC(C)(C)N([O])C(C)(C)C2)O1
- IC50 ([1]; kbvin): 0.358 µg/mL (≈ 0.605 µM)
- IC50 (KB; kb): 0.523 µg/mL (≈ 0.884 µM)
- IC50 (DU-145; du-145): 0.488 µg/mL (≈ 0.825 µM)
- IC50 (A549; a549): 0.651 µg/mL (≈ 1.1 µM)

SMILES: C=C(C)[C@H]1Cc2c(ccc3c2O[C@@H]2COc4cc(OC)c(OC)cc4[C@@H]2[C@@H]3OC(=O)C2CC(C)(C)N([O])C2(C)C)O1 (some centres not stated)
- IC50 ([1]; kbvin): 0.241 µg/mL (≈ 0.427 µM)
- IC50 (KB; kb): 0.443 µg/mL (≈ 0.785 µM)
- IC50 (DU-145; du-145): 0.277 µg/mL (≈ 0.491 µM)
- IC50 (A549; a549): 0.533 µg/mL (≈ 0.944 µM)

SMILES: C=C(C)[C@H]1Cc2c(ccc3c2O[C@@H]2COc4cc(OC)c(OC)cc4[C@@H]2[C@@H]3OC(=O)C2CC(C)(C)N([O])C(C)(C)C2)O1
- IC50 ([1]; kbvin): 0.092 µg/mL (≈ 0.159 µM)
- IC50 (KB; kb): 0.408 µg/mL (≈ 0.705 µM)
- IC50 (DU-145; du-145): 0.266 µg/mL (≈ 0.46 µM)
- IC50 (A549; a549): 0.523 µg/mL (≈ 0.904 µM)

SMILES: C=C(C)[C@H]1Cc2c(ccc3c2O[C@@H]2COc4cc(OC)c(OC)cc4[C@@H]2/C3=N\OC(=O)C2=CC(C)(C)N([O])C2(C)C)O1
- IC50 ([1]; kbvin): 0.62 µg/mL (≈ 1.08 µM)
- IC50 (KB; kb): 0.633 µg/mL (≈ 1.1 µM)
- IC50 (DU-145; du-145): 0.426 µg/mL (≈ 0.74 µM)
- IC50 (A549; a549): 0.738 µg/mL (≈ 1.28 µM)

SMILES: C=C(C)[C@H]1Cc2c(ccc3c2O[C@@H]2COc4cc(OC)c(OC)cc4[C@@H]2[C@@H]3OC(=O)[C@H](C)NC(=O)OC2CC(C)(C)N([O])C(C)(C)C2)O1
- IC50 ([1]; kbvin): 0.357 µg/mL (≈ 0.536 µM)
- IC50 (KB; kb): 0.442 µg/mL (≈ 0.664 µM)
- IC50 (DU-145; du-145): 0.417 µg/mL (≈ 0.626 µM)
- IC50 (A549; a549): 0.65 µg/mL (≈ 0.976 µM)

SMILES: C=C(C)[C@H]1Cc2c(ccc3c2O[C@@H]2COc4cc(OC)c(OC)cc4[C@@H]2/C3=N\OC(=O)C2CC(C)(C)N([O])C2(C)C)O1 (some centres not stated)
- IC50 ([1]; kbvin): 0.298 µg/mL (≈ 0.516 µM)
- IC50 (KB; kb): 0.56 µg/mL (≈ 0.969 µM)
- IC50 (DU-145; du-145): 0.322 µg/mL (≈ 0.557 µM)
- IC50 (A549; a549): 0.471 µg/mL (≈ 0.815 µM)

SMILES: C=C(C)[C@H]1Cc2c(ccc3c2O[C@@H]2COc4cc(OC)c(OC)cc4[C@@H]2[C@@H]3OC(=O)[C@@H](NC(=O)OC2CC(C)(C)N([O])C(C)(C)C2)C(C)CC)O1 (some centres not stated)
- IC50 ([1]; kbvin): 0.399 µg/mL (≈ 0.564 µM)
- IC50 (KB; kb): 0.516 µg/mL (≈ 0.729 µM)
- IC50 (DU-145; du-145): 0.396 µg/mL (≈ 0.559 µM)
- IC50 (A549; a549): 0.649 µg/mL (≈ 0.917 µM)

SMILES: C=C(C)[C@H]1Cc2c(ccc3c2O[C@@H]2COc4cc(OC)c(OC)cc4[C@@H]2[C@@H]3OC(=O)C2=CC(C)(C)N([O])C2(C)C)O1
- IC50 ([1]; kbvin): 0.075 µg/mL (≈ 0.133 µM)
- IC50 (KB; kb): 0.273 µg/mL (≈ 0.485 µM)
- IC50 (DU-145; du-145): 0.223 µg/mL (≈ 0.396 µM)
- IC50 (A549; a549): 0.408 µg/mL (≈ 0.725 µM)

SMILES: C=C(C)[C@H]1Cc2c(ccc3c2O[C@@H]2COc4cc(OC)c(OC)cc4[C@@H]2[C@@H]3OC(=O)[C@H](Cc2c[nH]c3ccccc23)NC(=O)OC2CC(C)(C)N([O])C(C)(C)C2)O1
- IC50 ([1]; kbvin): 0.414 µg/mL (≈ 0.53 µM)
- IC50 (KB; kb): 0.565 µg/mL (≈ 0.724 µM)
- IC50 (DU-145; du-145): 0.477 µg/mL (≈ 0.611 µM)
- IC50 (A549; a549): 0.631 µg/mL (≈ 0.808 µM)
